{
  "source": "patent US6521595B1",
  "about": "“Nonimmunosuppressive [γ-hydroxy-methylleucine4] cyclosporin A, hair growth stimulator and external composition for skin using the same” (LG Chemical, Ltd., priority 1999, dated 2003)",
  "data": [
    {"test_system": "C57BL/6 mice", "experiment": "In vivo hair growth promoting effects on shaved back of C57BL/6 mice", "set-up": "species or system mouse", "conditions": "seven week-old female C57BL/6 mice in telogen, 100 ul applied once a day for 30 days, compared to vehicle control", "procedure": "Seven week-old, female C57BL/6 mice were housed in groups of 7 to 11 animals. Mice were in the telogen stage of the hair cycle when used, as indicated by the pinkish color of the skin.\nThe mice's hair of the region of back was shaved by a clipper. After a one day for adaptation 100 ul of [γ-hydroxy-methylleucine^4] cyclosporin A was applied on the shaved portion once a day for a period of 30 days. After determining the degree of hair growth by the naked eye, the results were photographed. […] In contrast, animals treated with the derivatives (the 11 derivatives mentioned in REFERENCE EXAMPLES 6 to 11) were almost at the level of the control group, having virtually no effects (data not shown).\nThe test expanded to the derivatives modified on No. 4 amino acid, methylleucine. The results of the hair growth-stimulating effects on the derivatives in which the original No. 4 amino acid, methylleucine, is substituted with the similarly structured methylisoleucine, methylvaline, leucine, isoleucine, methylalanine (REFERENCE EXAMPLES 1 to 5) are represented in FIG. 17 to FIG. 23, wherein the hair growth-stimulating effects of […], [methylvaline^4] (FIG. 20), [leucine^4] (FIG. 21), [isoleucine^4] (FIG. 22), [methylalanine^4]", "values": [
      {"substance": "[Ile^4] cyclosporin A [[isoleucine^4]]", "degree of hair growth (hair growth promoting effect) by the naked eye, photographed": "much lesser than cyclosporin A"},
      {"substance": "[MeVal^4] cyclosporin A [[methylvaline^4]]", "degree of hair growth (hair growth promoting effect) by the naked eye, photographed": "much lesser than cyclosporin A"},
      {"substance": "[Leu^4] cyclosporin A [[leucine^4]]", "degree of hair growth (hair growth promoting effect) by the naked eye, photographed": "much lesser than cyclosporin A"},
      {"substance": "[methylisoleucine^4] cyclosporin A [[methylleucine^4]]", "degree of hair growth (hair growth promoting effect) by the naked eye, photographed": "much lesser than cyclosporin A"},
      {"substance": "[MeAla^4] cyclosporin A [[methylalanine^4]]", "degree of hair growth (hair growth promoting effect) by the naked eye, photographed": "much lesser than cyclosporin A"}
    ]}
  ]
}
